Values quoted from earlier work as cited in patent US20090318377A1, “MEDICAGENIC ACID SAPONIN AND USES THEREOF” (MEDICAGO INC., priority 2006, published 2009).

Tested on: Syrian Golden hamster
Settings: average daily dose 128 mg/kg for 4 weeks

## soyasaponin B
  reduction in high-density lipoprotein (HDL): 33%
  reduction in plasma cholesterol: 20%
  reduction in triglycerides: 18%
